The target of test [1] is T1, APOL1 G2 (Homo sapiens, UniProt O14791, DEL388-389).
T1 construct: expressed in transfected cells; host or cells: HEK293/T-REx APOL1 G2 clone #2, doxycycline-inducible
T1 sequence (O14791 with tags, fused parts or gaps DEL388-389): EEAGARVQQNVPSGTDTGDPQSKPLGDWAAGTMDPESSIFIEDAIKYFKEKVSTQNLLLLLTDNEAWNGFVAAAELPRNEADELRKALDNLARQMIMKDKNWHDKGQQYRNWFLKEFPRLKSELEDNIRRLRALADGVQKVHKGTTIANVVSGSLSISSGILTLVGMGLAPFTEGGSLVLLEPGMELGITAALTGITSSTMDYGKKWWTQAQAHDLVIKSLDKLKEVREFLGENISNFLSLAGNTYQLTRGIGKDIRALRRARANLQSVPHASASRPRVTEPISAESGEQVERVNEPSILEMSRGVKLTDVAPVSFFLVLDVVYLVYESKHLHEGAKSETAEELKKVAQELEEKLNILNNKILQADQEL
As to the kind of experiment: APOL1 G2 FLIPR calcium influx assay (HEK T-REx/GCaMP6f/APOL1 G2 K6.3 cells). Format: cell-based. As to conditions: HEK293 clone expressing GCaMP6f, doxycycline-induced APOL1 G2; prevention of calcium influx; geometric mean of at least 2 assay runs. The method in brief: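 HEK293 clone stably expressing GCaMP6f, APOL1 G2 induced with doxycycline for 6 h; compounds (duplicate 8-point dose response) preincubated 10 min at room temperature in Ca2+-free Tyrode's buffer, pH 7.4. Ca2+ added to 5 mM final, influx read on FLIPR; AC50 is geometric mean of ≥2 runs.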

Test [2] addresses T1, APOL1 G2. Kind of test: APOL1 G2 HEK293 rescue of cell death caused by overexpression of APOL1 (CellTiter-Glo). Format: cell-based. As to conditions: HEK293/T-REx APOL1 G2 clone #2, doxycycline induction, 17 hours, CellTiter-Glo luminescence; reversal of cell death; geometric mean of at least 2 assay runs. The method in brief: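 Doxycycline (6 ng/mL)-induced HEK293/T-REx APOL1 G2 clone seeded at 5,000 cells/well with compound in duplicate 8-point 3-fold series (0.5% DMSO), 17 h at 37 °C. CellTiter-Glo luminescence; EC50 from four-parameter logistic fit, geometric mean of ≥2 runs.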

SMILES strings stand for the structures. pEC50: −log10 of the molar value.

As for `CN1CC(S(=O)(=O)c2ccc(OC[C@@H]3CN(CCc4cccc(Cl)c4)CCN3)cc2)C1` [Compound 108, (3S)-1-[2-(3-chlorophenyl)ethyl]-3-({4-[(1-methylazetidin-3-yl)sulfonyl]phenoxy}methyl)piperazine], the AC50 in test [1] worked out at 337 nM. The negative logarithm of the EC50 (pEC50) in test [2] is 6.18.

In the case of `CN=S(C)(=O)c1ccc(OC[C@H]2C[C@@H](C)N(C3CCc4ccc(C#N)cc4C3)C2)cc1` (single isomer, unassigned) [Compound 38, (7S or 7R)-7-[(2R,4S)-2-methyl-4-({4-[methyl(methylimino)oxo-λ^6-sulfanyl]phenoxy}methyl)pyrrolidin-1-yl]-5,6,7,8-tetrahydronaphthalene-2-carbonitrile], the AC50 in test [1] came to 590 nM. For the same compound, the negative logarithm of the EC50 (pEC50) in test [2] is 7.19.

On to `C[C@@H]1C[C@H](COc2ccc(S(=O)(=O)CCS(C)(=O)=O)cc2)CN1C1CCc2c(C#N)cc(Cl)cc2C1` (single isomer, unassigned) [Compound 47, (6S or 6R)-3-chloro-6-[(2R,4S)-4-{[4-(2-methanesulfonylethanesulfonyl)phenoxy]methyl}-2-methylpyrrolidin-1-yl]-5,6,7,8-tetrahydronaphthalene-1-carbonitrile], for which the AC50 in test [1] came to 926 nM. Besides, the negative logarithm of the EC50 (pEC50) in test [2] was less than 5.48.

In the case of `C[C@@H]1C[C@H](COc2ccc(S(=O)(=O)CCS(C)(=O)=O)cc2)CN1C1CCc2c(C#N)cc(Cl)cc2C1` (single isomer, unassigned) [Compound 48, (6R or 6S)-3-chloro-6-[(2R,4S)-4-{[4-(2-methanesulfonylethanesulfonyl)phenoxy]methyl}-2-methylpyrrolidin-1-yl]-5,6,7,8-tetrahydronaphthalene-1-carbonitrile], the half-maximal activity concentration (AC50) in test [1] turned out to be 1130 nM. Besides, the pEC50 in test [2] was 6.40.

Turning to `C[C@@H]1CN(C(CO)Cc2cc(Cl)cc(C#N)c2)C[C@H]1COc1ccc(S(C)(=O)=O)cc1` (single isomer, unassigned) [Compound 121, 3-chloro-5-[(2R or 2S)-3-hydroxy-2-[(3S,4S)-3-[(4-methanesulfonylphenoxy)methyl]-4-methylpyrrolidin-1-yl]propyl]benzonitrile], the AC50 in test [1] turned out to be 1110 nM. Also, the negative logarithm of the EC50 (pEC50) in test [2] was less than 5.00.

On to `CC(C(O)c1cc(Cl)cc(C#N)c1)N1C[C@@H](COc2ccc(S(C)(=O)=O)cc2)C[C@H]1C` (single isomer, unassigned) [Compound 99, 3-chloro-5-[(1S,2R or 1R,2S or 1S,2S or 1R,2R)-1-hydroxy-2-[(2R,4S)-4-[(4-methanesulfonylphenoxy)methyl]-2-methylpyrrolidin-1-yl]propyl]benzonitrile], for which the AC50 in test [1] is 1690 nM. In test [2], the pEC50 is 6.60.

Take `CS(=O)(=O)c1ccc(OC[C@@H]2CN(CCc3cccc(C#N)c3)CCN2)cc1C(F)(F)F` [Compound 113, 3-{2-[(3S)-3-{[4-methanesulfonyl-3-(trifluoromethyl)phenoxy]methyl}piperazin-1-yl]ethyl}benzonitrile]: the AC50 in test [1] is 634 nM. Further, in test [2], the negative-log EC50 (pEC50) is 6.14.

Take `CS(=O)(=O)c1ccc(OC[C@@H]2CN(CCc3cccc(C#N)c3)C[C@H]2CO)cc1` [Compound 25, 3-{2-[(3S,4S)-3-(hydroxymethyl)-4-[(4-methanesulfonylphenoxy)methyl]pyrrolidin-1-yl]ethyl}benzonitrile]: the AC50 in test [1] came to 343 nM. Also, the negative logarithm of the EC50 (pEC50) in test [2] was 6.00.

As to `CS(=O)(=O)C1(c2ccc(OC[C@@H]3CN(CCc4cc(Cl)cc(C#N)c4)CCN3)cc2)COC1` [Compound 111, 3-chloro-5-{2-[(3S)-3-{[4-(3-methanesulfonyloxetan-3-yl)phenoxy]methyl}piperazin-1-yl]ethyl}benzonitrile], in test [1], the half-maximal activity concentration (AC50) was less than 116 nM. Also, the pEC50 in test [2] was 6.86.

`C[C@@H]1CN(CCc2cc(Cl)cc(C#N)c2)C[C@H]1COc1ccc(C2(S(C)(=O)=O)CC2)cc1` [Compound 77, 3-chloro-5-{2-[(3S,4S)-3-{[4-(1-methanesulfonylcyclopropyl)phenoxy]methyl}-4-methylpyrrolidin-1-yl]ethyl}benzonitrile]: the concentration at half-maximal activity (AC50) in test [1] was determined as 189 nM. In test [2], the pEC50 is 6.75.

For `C[C@@H]1CN(C(CO)Cc2cccc(Cl)c2)C[C@H]1COc1ccc(S(C)(=O)=O)cc1` (single isomer, unassigned) [Compound 117, (2S or 2R)-3-(3-chlorophenyl)-2-[(3S,4S)-3-[(4-methanesulfonylphenoxy)methyl]-4-methylpyrrolidin-1-yl]propan-1-ol], the half-maximal activity concentration (AC50) in test [1] came out at 483 nM. Moreover, in test [2], the pEC50 is 6.12.

As for `C[C@@H]1C[C@H](COc2ccc(S(=O)(=O)CCCS(C)(=O)=O)cc2)CN1C1CCc2ccc(Cl)cc2C1` (single isomer, unassigned) [Compound 53, (2R,4S)-1-[(2R or 2S)-7-chloro-1,2,3,4-tetrahydronaphthalen-2-yl]-4-{[4-(3-methanesulfonylpropanesulfonyl)phenoxy]methyl}-2-methylpyrrolidine], the AC50 in test [1] turned out to be 999 nM. In addition, in test [2], the negative-log EC50 (pEC50) was 6.55.

For the compound `C[C@@H]1CN(C(CO)Cc2cc(Cl)cc(C#N)c2)C[C@H]1COc1ccc(S(C)(=O)=O)cc1` (stereo partly drawn) [Compound 120, 3-chloro-5-[3-hydroxy-2-[(3S,4S)-3-[(4-methanesulfonylphenoxy)methyl]-4-methylpyrrolidin-1-yl]propyl]benzonitrile], the AC50 in test [1] was 480 nM. Besides, the pEC50 in test [2] was 5.98.

On to `CC(=O)N(C)CCS(=O)(=O)c1ccc(OC[C@@H]2CN(CCc3cccc(C#N)c3)C[C@H]2C)cc1` [Compound 76, N-[2-(4-{[(3S,4S)-1-[2-(3-cyanophenyl)ethyl]-4-methylpyrrolidin-3-yl]methoxy}benzenesulfonyl)ethyl]-N-methylacetamide], for which the half-maximal activity concentration (AC50) in test [1] is 250 nM. The pEC50 in test [2] is 6.65.

For the compound `C[C@@H]1C[C@H](COc2ccc(S(C)(=O)=O)cc2)CN1CC(CO)c1cc(Cl)cc(C#N)c1` (single isomer, unassigned) [Compound 130, 3-chloro-5-[(2S or 2R)-1-hydroxy-3-[(2R,4S)-4-[(4-methanesulfonylphenoxy)methyl]-2-methylpyrrolidin-1-yl]propan-2-yl]benzonitrile], in test [1], the AC50 amounted to 1940 nM. Moreover, the pEC50 in test [2] was 6.52.

As to `CC(Cc1cc(Cl)cc(C#N)c1)N1C[C@@H](COc2ccc(S(C)(=O)=O)cc2)[C@H](C)C1` (single isomer, unassigned) [Compound 19, 3-chloro-5-[(2R or 2S)-2-[(3S,4S)-3-[(4-methanesulfonylphenoxy)methyl]-4-methylpyrrolidin-1-yl]propyl]benzonitrile], in test [1], the AC50 stood at 444 nM. Moreover, in test [2], the pEC50 is 6.19.

As for `C[C@@H]1CN(CC(O)c2cccc(C#N)c2)C[C@H]1COc1ccc(S(C)(=O)=O)nc1` (single isomer, unassigned) [Compound 105, 3-[(1S or 1R)-1-hydroxy-2-[(3S,4S)-3-{[(6-methanesulfonylpyridin-3-yl)oxy]methyl}-4-methylpyrrolidin-1-yl]ethyl]benzonitrile], the AC50 in test [1] is greater than 10000 nM. Moreover, in test [2], the pEC50 was less than 5.00.

On to `Cc1cc(OC[C@H]2C[C@@H](C)N(CC(O)c3cccc(C#N)c3)C2)cnc1S(C)(=O)=O` (single isomer, unassigned) [Compound 95, 3-[(1R or 1S)-1-hydroxy-2-[(2R,4S)-4-{[(6-methanesulfonyl-5-methylpyridin-3-yl)oxy]methyl}-2-methylpyrrolidin-1-yl]ethyl]benzonitrile], for which the AC50 in test [1] is 1040 nM. In addition, the negative logarithm of the EC50 (pEC50) in test [2] is 5.94.

For the compound `C[C@@H]1CN(CC(O)c2cccc(C#N)c2)C[C@H]1COc1ccc(S(C)(=O)=O)nc1` (stereo partly drawn) [Compound 104, 3-{1-hydroxy-2-[(3S,4S)-3-{[(6-methanesulfonylpyridin-3-yl)oxy]methyl}-4-methylpyrrolidin-1-yl]ethyl}benzonitrile], the concentration at half-maximal activity (AC50) in test [1] was 700 nM. In test [2], the pEC50 is 6.00.

Regarding `CC(c1ccc(OC[C@@H]2CN(CCc3cccc(Cl)c3)CCN2)cc1)S(C)(=O)=O` (single isomer, unassigned) [Compound 141, (3S)-1-[2-(3-chlorophenyl)ethyl]-3-({4-[(1R) or (1S)-1-methanesulfonylethyl]phenoxy}methyl)piperazine], the AC50 in test [1] is 160 nM. Also, the negative logarithm of the EC50 (pEC50) in test [2] is 6.63.

For `COC(=O)CCCS(=O)(=O)c1ccc(OC[C@@H]2CN(CCc3cc(Cl)cc(C#N)c3)C[C@H]2C)cc1` [Compound 80, methyl 4-(4-{[(3S,4S)-1-[2-(3-chloro-5-cyanophenyl)ethyl]-4-methylpyrrolidin-3-yl]methoxy}benzenesulfonyl)butanoate], the AC50 in test [1] came out at 404 nM. Moreover, in test [2], the negative-log EC50 (pEC50) was 6.69.

As to `CS(=O)(=O)c1ccc(OC[C@@H]2CCCN(C3CCc4ccc(Cl)cc4C3)C2)cc1` (stereo partly drawn) [Compound 131, (3R)-1-(7-chloro-1,2,3,4-tetrahydronaphthalen-2-yl)-3-[(4-methanesulfonylphenoxy)methyl]piperidine], the AC50 in test [1] was less than 229 nM. The pEC50 in test [2] is 6.00.

For the origin of these results see patent publication US20260055083A1, “APOL1 INHIBITORS AND METHODS OF USE” (Maze Therapeutics, Inc., priority 2022, published 2026).
